What was measured:
BRD4 = BRD4 (Homo sapiens, UniProt O60885); experiment: HTRF binding assay (cell-free, protein and peptide)
BRD2 = biological target: T1, BRD2 (Homo sapiens, UniProt P25440); experiment: as above
T1 construct: BRD2(1,2)
T1 sequence (P25440 whole entry): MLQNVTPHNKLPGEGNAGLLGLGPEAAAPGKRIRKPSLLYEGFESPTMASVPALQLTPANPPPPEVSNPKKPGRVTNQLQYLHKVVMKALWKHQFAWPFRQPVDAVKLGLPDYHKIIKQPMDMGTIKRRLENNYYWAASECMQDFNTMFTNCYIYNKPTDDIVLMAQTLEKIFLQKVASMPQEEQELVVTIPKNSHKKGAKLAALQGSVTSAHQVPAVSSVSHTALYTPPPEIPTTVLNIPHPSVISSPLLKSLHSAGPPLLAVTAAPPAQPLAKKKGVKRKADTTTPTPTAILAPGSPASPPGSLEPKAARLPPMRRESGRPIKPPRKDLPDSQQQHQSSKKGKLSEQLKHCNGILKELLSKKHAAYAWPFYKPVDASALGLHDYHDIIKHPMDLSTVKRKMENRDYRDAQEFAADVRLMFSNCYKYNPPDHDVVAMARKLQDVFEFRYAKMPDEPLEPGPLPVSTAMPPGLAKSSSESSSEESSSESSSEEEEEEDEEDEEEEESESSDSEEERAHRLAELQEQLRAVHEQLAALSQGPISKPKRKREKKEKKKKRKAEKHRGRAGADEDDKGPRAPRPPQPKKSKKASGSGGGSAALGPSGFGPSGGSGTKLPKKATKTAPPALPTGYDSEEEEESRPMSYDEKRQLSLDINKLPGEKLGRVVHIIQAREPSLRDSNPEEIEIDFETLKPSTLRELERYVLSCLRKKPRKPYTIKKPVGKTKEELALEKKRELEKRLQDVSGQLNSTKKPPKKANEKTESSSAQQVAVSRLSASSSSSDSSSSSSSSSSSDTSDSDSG

Cc1nnn(C)c1-c1cnc2c3ccc(C(C)(C)O)cc3n([C@H](c3ccccc3)C3CCOCC3)c2c1 [BMS-986158]
IC50 (BRD4): 2.75 nM | IC50 (BRD2): 1.17 nM

— publication PMC8952190, “Bromodomain and Extra-Terminal Inhibitor BMS-986158 Reverses Latent HIV-1 Infection In Vitro and Ex Vivo by Increasing CDK9 Phosphorylation and Recruitment” (Pharmaceuticals, 2022)
